In patent US10647694B2, “Diphenylaminopyrimidine and triazine compound, and pharmaceutical composition and use thereof” (ARROMAX PHARMATECH CO., LTD., priority 2016, dated 2020):

Tests used:
Karpas 299 cells = test: Tumor cell growth inhibition test (CCK8 detection), Karpas 299; type: cell-based, human
Protocol: (§1) Growth Inhibition Test of the Series of Compounds on Various Tumor Cells (CCK8 Detection)
(2) Karpas 299 human T lymphoma cell line, RPMI 1640+10% FBS+1% Sodium Pyruvate;
(§2) (1) Cell culture • a) Cells in logarithmic growth phase were collected, counted, and re-suspended in a complete medium. • b) The cell concentration was adjusted to an appropriate concentration, and inoculated into a 96-well plate in an amount of 100 μl of cell suspension per well. • c) The cells were incubated for 24 hrs in an incubator at 37° C. with 100% relative humidity and 5% CO2.
(§3) (2) Test of relative inhibition rate • 1) Cells in logarithmic growth phase were collected, counted, and re-suspended in a complete medium. The cell concentration was adjusted to an appropriate concentration (determined according to the optimal test result of cell density), and inoculated into a 96-well plate in an amount of 100 μl of cell suspension per well. The cells were incubated for 24 hrs in an incubator at 37° C. with 100% relative humidity and 5% CO2. • 2) The compound to be tested was diluted with the medium to the corresponding action concentration, and […] were added in an amount of 25 µl/well.
(§4) The IC50 curve was fitted using the software Graphpad Prism 5 and using the calculation formula log(inhibitor) vs response and the IC50 value was calculated.

NCI-H2228 cells = test: Tumor cell growth inhibition test (CCK8 detection), NCI-H2228; type: cell-based, human
Protocol: as §1
(3) NCI-H2228 human non-small cell lung cancer cell line, RPMI 1640+10% FBS+1% Sodium Pyruvate;
as §2, §3, §4

[1] = tested on: NCI-H2228 nude mice xenografts; test: In-vivo pharmacodynamic evaluation, NCI-H2228 subcutaneous xenograft; details: 10 mg/kg qd intragastric, 14 days, day 21
Protocol: In-Vivo Pharmacodynamic Evaluation
SCID Beige mice, female, 5-6 weeks old, weighed 18+2 g, purchased from Beijing HFK Bioscience Co., Ltd., bred in an SPF level environment.
NCI-H2228 cells were cultured in PRMI-1640 containing 10% fetal bovine serum (FBS) and 1% sodium pyruvate. The cells were cultured in an incubator at 37° C. with 5% CO2.
Establishment of subcutaneous tumor transplantation model in nude mice by cell inoculation: Tumor cells in logarithmic growth phase were collected, counted and re-suspended in PRMI-1640 basal medium. Matrigel was added at a ratio of 1:1, and the concentration of the cell suspension was adjusted to 6×10^7/ml. Tumor cells were subcutaneously inoculated to the right back of nude mice in an amount of 6×10^6/0.1 mL/mouse using a 1 mL syringe (with a […]).
When the tumor volume reached about 200 mm^3, the animals were randomly grouped according to randomized block method, so that the difference in tumor volume of each group was within 10% of the mean. There were 5 groups in total, each having 8 animals. The day of grouping was recorded as Day 0, and the animals were administered immediately after grouping. Compound I-3 of the present invention and Ceritinib were orally administered once a day for consecutive 14 days, and then observed for 7 days. The weight and tumor size of the animals were measured twice a week during the experiment. The clinical symptoms were observed and recorded daily. After the animals were weighed for the last time on Day 21, they were sacrificed by euthanization with CO2. The tumors were taken, weighed and photographed, and the average tumor size was calculated, to investigate the growth inhibitory effect of the test substance Compound I-3 on human lung cancer NCI-H2228 nude mice xenografts under the experimental conditions.
When the tumor in the tumor-bearing mice grew to a measurable size, the mice were randomly divided into 5 groups according to the principle of equal mean tumor volume using SPSS 17.0 software. Compound I-3 was administered by intragastric administration at a dosage of 30, 10, and 3 mg/kg per day. The positive control ceritinib was administered by intragastric administration at a dose of 10 mg/kg per day in a volume of 0.1 ml/10 g. These agents were administered once a day for consecutive 14 days. The animals in the negative control group were given an equal amount of solvent (1% DMSO in physiological saline). During the administration and recovery periods, the body weight and tumor size of the mice were measured 2-3 times per week. The tumor volume and relative tumor volume were calculated based on the measured data. The tumor volume (TV) was calculated by a formula below: TV=1/2×a×b^2, where a and b represent the major and minor diameters of the tumor, respectively. According to the measurement results, the relative tumor volume (RTV) was calculated, by a formula below: RTV=Vt/V0, where V0 is the tumor volume at the start of the experiment, and Vt is the tumor volume measured each time.

Ba/F3 cells = test: Tumor cell growth inhibition test (CCK8 detection), Ba/F3; type: cell-based, mouse
Protocol: as §1
(1) Ba/F3 mouse IL-3 dependent pro-B lymphocyte cell line, RPMI 1640+10% FBS+10 ng/ml Interleukin-3+1% Sodium Pyruvate;
as §2, §3, §4

NCI-H3122 cells = test: Tumor cell growth inhibition test (CCK8 detection), NCI-H3122; type: cell-based, human
Protocol: as §1
(4) NCI-H3122 human lung cancer cell line, RPMI 1640+10% FBS+1% Sodium Pyruvate;
as §2, §3, §4

ALK enzyme = ALK enzyme (Homo sapiens, UniProt Q9UM73); test: In-vitro ALK kinase inhibitory activity (HTRF kinEASE TK kit); type: biochemical; details: inhibitory activity for ALK enzyme, listed as 3, read-out: IC50 range
ALK enzyme, sequence (Q9UM73 19-1620 limits assumed): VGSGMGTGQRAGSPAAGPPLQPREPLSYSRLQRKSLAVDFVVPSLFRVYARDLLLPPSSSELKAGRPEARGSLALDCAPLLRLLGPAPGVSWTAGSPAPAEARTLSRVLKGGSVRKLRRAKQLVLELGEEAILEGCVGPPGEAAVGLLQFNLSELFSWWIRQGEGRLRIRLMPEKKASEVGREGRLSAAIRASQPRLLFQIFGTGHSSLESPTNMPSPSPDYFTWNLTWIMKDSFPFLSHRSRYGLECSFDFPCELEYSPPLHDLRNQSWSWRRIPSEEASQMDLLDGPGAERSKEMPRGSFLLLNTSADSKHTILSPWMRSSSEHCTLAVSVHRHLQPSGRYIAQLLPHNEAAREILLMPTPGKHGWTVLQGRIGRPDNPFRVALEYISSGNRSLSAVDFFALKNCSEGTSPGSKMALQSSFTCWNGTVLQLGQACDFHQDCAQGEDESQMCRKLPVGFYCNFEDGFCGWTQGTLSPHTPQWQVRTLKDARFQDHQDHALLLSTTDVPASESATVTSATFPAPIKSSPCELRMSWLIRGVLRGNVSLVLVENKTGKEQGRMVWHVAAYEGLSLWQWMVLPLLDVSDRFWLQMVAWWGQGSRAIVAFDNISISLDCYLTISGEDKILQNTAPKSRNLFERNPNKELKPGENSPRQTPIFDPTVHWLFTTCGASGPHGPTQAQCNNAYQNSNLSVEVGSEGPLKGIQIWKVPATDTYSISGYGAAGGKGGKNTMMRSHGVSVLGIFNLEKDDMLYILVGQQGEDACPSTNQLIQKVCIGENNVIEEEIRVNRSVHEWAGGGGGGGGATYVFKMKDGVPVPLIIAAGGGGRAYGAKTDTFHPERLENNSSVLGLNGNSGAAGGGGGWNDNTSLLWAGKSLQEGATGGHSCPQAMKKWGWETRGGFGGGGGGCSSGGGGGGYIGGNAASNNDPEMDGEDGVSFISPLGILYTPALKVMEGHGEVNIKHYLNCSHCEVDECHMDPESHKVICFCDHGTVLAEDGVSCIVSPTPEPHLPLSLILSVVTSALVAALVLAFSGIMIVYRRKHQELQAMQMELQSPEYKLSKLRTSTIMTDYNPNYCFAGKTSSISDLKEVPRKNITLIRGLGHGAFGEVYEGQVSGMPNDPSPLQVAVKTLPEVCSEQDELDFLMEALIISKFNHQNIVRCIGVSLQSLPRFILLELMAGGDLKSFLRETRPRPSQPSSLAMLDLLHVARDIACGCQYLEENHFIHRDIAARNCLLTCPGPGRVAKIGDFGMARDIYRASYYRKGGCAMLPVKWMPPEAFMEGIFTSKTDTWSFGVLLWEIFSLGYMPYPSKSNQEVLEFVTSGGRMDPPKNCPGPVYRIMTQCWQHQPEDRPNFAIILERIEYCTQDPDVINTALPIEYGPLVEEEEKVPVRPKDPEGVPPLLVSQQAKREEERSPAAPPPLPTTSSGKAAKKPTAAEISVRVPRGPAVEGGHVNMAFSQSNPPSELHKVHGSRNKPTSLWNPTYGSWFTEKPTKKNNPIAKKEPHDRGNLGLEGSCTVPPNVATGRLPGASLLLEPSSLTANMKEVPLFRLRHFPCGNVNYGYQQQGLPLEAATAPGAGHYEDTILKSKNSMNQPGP
Protocol: Anaplastic Lymphoma Kinase (ALK) Inhibitory Activity The in-vitro kinase assay was performed using the HTRF kinEASE TK kit available from Cisbio. The operation steps are indicated in the instructions of the kit. This method was used to detect the inhibitory effect of the compound to be tested on the activity of ALK enzymes in vitro, including wild-type ALK (Cat.PV3867, Invitrogen), ALK L1196M (Cat. PV6168, Life technologies), and ALK F1174L (Cat. PV6160, Life technologies). The specific operation steps were as follows. […] In addition to the control wells, 4 μL of the diluted compound solution to be tested was added to the reaction wells, and 4 μL of the 2.5% DMSO solution corresponding to the ALK enzyme previously formulated was added to the control wells. (2) 2 μL of a TK-biotin substrate solution previously formulated in a substrate concentration corresponding to the ALK enzyme was added to all reaction wells. (3) 2 μL of a previously prepared enzyme solution of corresponding concentration was added to all the reaction wells except the negative wells, and 2 μL of the 1× kinase buffer corresponding to the enzyme was added to the negative wells to make up the volume. The plate was sealed with a membrane, and incubated for 10 min at room temperature after mixing uniformly, such that the compounds were bond to the enzyme fully. (4) 2 μL of an ATP solution in a concentration corresponding to the ALK enzyme was added to all the reaction wells to initiate the kinase reaction, where the enzyme reaction time by ALK was 60 minutes. (5) An ALK test solution was prepared 5 minutes before the end of the kinase reaction. Streptavidin-XL665 and TK antibody europium cryptate (1:100) solutions for assay having a concentration corresponding to the enzyme were prepared using the detection buffer in the kit. (6) After the completion of the kinase reaction, 5 μl of diluted Streptavidin-XL665 was added to all the reaction wells respectively, and mixed uniformly, and then the diluted TK antibody europium cryptate solution for assay was added immediately. (7) The plate was sealed, mixed uniformly and allowed to react at room temperature for 1 h. The fluorescence signal (excitation at 320 nm, and emission at 665 nm and 615 nm) was detected using the ENVISION instrument (Perkinelmer). The inhibition rate for each well was calculated from the values of the fully active wells and the background signal wells. The values of replicated wells were averaged, and the half-maximal inhibitory activity (IC50) of each compound to be tested was fitted with a professional drawing analysis software PRISM 5.0.

Structure (SMILES)	IC50 (Karpas 299 cells; Homo sapiens, KARPAS-299, 72 hrs) [nM]	IC50 (NCI-H2228 cells; Homo sapiens, NCI-H2228, 72 hrs) [nM]	IR (%) [1] [%]	RTV d21 [1]	T/C (%) [1] [%]	IC50 (Ba/F3 cells; Mus musculus, BaF3, 72 hrs) [nM]	IC50 (NCI-H3122 cells; Homo sapiens, NCI-H3122, 72 hrs) [nM]	IC50 (Karpas 299 cells; 72 hrs) [nM]	IC50 (NCI-H2228 cells; 72 hrs) [nM]	IC50 (Ba/F3 cells; 72 hrs) [nM]	IC50 (ALK enzyme) [nM]	IC50 (NCI-H3122 cells; 72 hrs) [nM]
Cc1cc(Nc2ncc(Cl)c(Nc3ccccc3S(=O)(=O)C(C)C)n2)c(OC(C)C)cc1C1CCNCC1 [Ceritinib, reference compound]	35.6	97.1	26.07	2.68 ± 0.28	71.47	2390	27.2	–	–	–	–	–
COc1cc(C2CCNCC2)c(C)cc1Nc1ncc(Cl)c(Nc2ccccc2S(=O)(=O)C(C)C)n1 [Compound I-3, 5-chloro-N4-(2-(isopropylsulfonyl)phenyl)-N2-(2-D3-methoxy-5-methyl-4-(piperidin-4-yl)phenyl)pyrimidin-2,4-diamine]	–	–	–	–	–	–	–	7.64	41.3	1240	1 to 10	4.03
